Results: patent US12139499B2, “Heteroaryl compounds for treating Huntington's disease” (PTC THERAPEUTICS, INC., priority 2018, dated 2024)
pIC50: −log10 of the molar value.

System: Endogenous Huntingtin Protein
Assay: Endogenous Huntingtin Protein Assay (ELISA-based MSD electrochemiluminescence)
Type: cell-based
Settings: Table 1
Method in brief: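 Huntingtin was captured overnight at 4 °C on plates coated with 1 μg/mL MW1 (polyQ-expanded) or MAB2166 antibody and BSA-blocked. Detection used a rabbit monoclonal and then a SULFO-TAG goat anti-rabbit antibody (0.25 μg/mL, 1 h each, room temperature). Signal was read by electrochemiluminescence.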

| Compound | pIC50 |
| --- | --- |
| Cc1cn2cc(-c3ncc4nc(N(C)C5CC(C)(C)NC(C)(C)C5)sc4n3)cc(C)c2n1 [Compound 183, 5-(2,8-dimethylimidazo[1,2-a]pyridin-6-yl)-N-methyl-N-(2,2,6,6-tetramethylpiperidin-4-yl)[1,3]thiazolo[5,4-d]pyrimidin-2-amine] | ≥ 7.00 |
| Cc1cn2nc(-c3ncc4nc(N(C)C5CC(C)(C)NC(C)(C)C5)sc4n3)cc(C)c2n1 [Compound 184, 5-(2,8-dimethylimidazo[1,2-b]pyridazin-6-yl)-N-methyl-N-(2,2,6,6-tetramethylpiperidin-4-yl)[1,3]thiazolo[5,4-d]pyrimidin-2-amine] | 5.52 to 6.00 |
| Cc1cn2nc(-c3cc(F)c4nc(N(C)C5CCNCC5)sc4c3)ccc2n1 [Compound 185, 4-fluoro-N-methyl-6-(2-methylimidazo[1,2-b]pyridazin-6-yl)-N-(piperidin-4-yl)-1,3-benzothiazol-2-amine] | ≥ 7.00 |
| Cc1cn2nc(-c3cc(F)c4nc(N(C)C5CCNCC5)sc4c3)cc(C)c2n1 [Compound 186, 6-(2,8-dimethylimidazo[1,2-b]pyridazin-6-yl)-4-fluoro-N-methyl-N-(piperidin-4-yl)-1,3-benzothiazol-2-amine] | ≥ 7.00 |
| Cc1cn2nc(-c3cc(F)c4nc(C5CCNCC5)sc4c3)cc(OCc3ccccc3)c2n1 [Compound 187, 8-(benzyloxy)-6-[4-fluoro-2-(piperidin-4-yl)-1,3-benzothiazol-6-yl]-2-methylimidazo[1,2-b]pyridazine] | ≥ 7.00 |
| Cc1cn2nc(-c3cc(F)c4nc(C5CCNCC5)sc4c3)cc(N)c2n1 [Compound 188, 6-[4-fluoro-2-(piperidin-4-yl)-1,3-benzothiazol-6-yl]-2-methylimidazo[1,2-b]pyridazin-8-amine] | ≥ 7.00 |
| Cc1cn2nc(-c3cc(F)c4nc(C5CCNCC5)sc4c3)cc(O)c2n1 [Compound 189, 6-[4-fluoro-2-(piperidin-4-yl)-1,3-benzothiazol-6-yl]-2-methylimidazo[1,2-b]pyridazin-8-ol] | 6.30 to 7.00 |
| CC1CC(c2nc3ccc(-c4ccc5nn(C)cc5c4)cc3s2)CC(C)N1 (stereo not shown) [Compound 190, 2-(2,6-dimethylpiperidin-4-yl)-6-(2-methyl-2H-indazol-5-yl)-1,3-benzothiazole] | 5.52 to 6.00 |
| COc1cc(-c2cc(F)c3nc(C4CCNCC4)sc3c2)ccc1F [Compound 191, 4-fluoro-6-(4-fluoro-3-methoxyphenyl)-2-(piperidin-4-yl)-1,3-benzothiazole] | 5.52 to 6.00 |
| Cc1cn2nc(-c3cc(F)c4nc(N(C)C5CC6CCC(C5)N6)sc4c3)cc(C)c2n1 (stereo not drawn) [Compound 192, N-[(3-exo)-8-azabicyclo[3.2.1]oct-3-yl]-6-(2,8-dimethylimidazo[1,2-b]pyridazin-6-yl)-4-fluoro-N-methyl-1,3-benzothiazol-2-amine] | ≥ 7.00 |
| CN(c1nc2cnc(-c3cc(C#N)c4nn(C)cc4c3)nc2s1)C1CCNCC1 [Compound 193, 2-methyl-5-{2-[methyl(piperidin-4-yl)amino][1,3]thiazolo[5,4-d]pyrimidin-5-yl}-2H-indazole-7-carbonitrile] | ≥ 7.00 |
| Cc1cn2nc(-c3cc(F)c4nc(C56CCN(CC5)CC6)sc4c3)cc(C)c2n1 [Compound 194, 6-[2-(1-azabicyclo[2.2.2]oct-4-yl)-4-fluoro-1,3-benzothiazol-6-yl]-2,8-dimethylimidazo[1,2-b]pyridazine] | ≥ 7.00 |
| Cc1cn2nc(-c3cc(F)c4nc(C5CCNCC5)sc4c3)cc(Oc3ccccc3)c2n1 [Compound 195, 6-[4-fluoro-2-(piperidin-4-yl)-1,3-benzothiazol-6-yl]-2-methyl-8-phenoxyimidazo[1,2-b]pyridazine] | ≥ 7.00 |
| Cc1cn2cc(-c3ncc4nc(N(C)C5CCNCC5)sc4n3)cc(C#N)c2n1 [Compound 196, 2-methyl-6-{2-[methyl(piperidin-4-yl)amino][1,3]thiazolo[5,4-d]pyrimidin-5-yl}imidazo[1,2-a]pyridine-8-carbonitrile] | ≥ 7.00 |
| COc1cc(-c2ncc3nc(N(C)C4CC(C)(C)NC(C)(C)C4)sc3n2)cc2cn(C)nc12 [Compound 197, 5-(7-methoxy-2-methyl-2H-indazol-5-yl)-N-methyl-N-(2,2,6,6-tetramethylpiperidin-4-yl)[1,3]thiazolo[5,4-d]pyrimidin-2-amine] | 6.30 to 7.00 |
| Cc1cn2cc(-c3cc4sc(N(C)C5CCNCC5)nc4cn3)cc(C#N)c2n1 [Compound 198, 2-methyl-6-{2-[methyl(piperidin-4-yl)amino][1,3]thiazolo[4,5-c]pyridin-6-yl}imidazo[1,2-a]pyridine-8-carbonitrile] | ≥ 7.00 |
| Cc1cn2cc(-c3cc4sc(NC5CC6CCC(C5)N6)nc4cn3)cc(C#N)c2n1 (stereo not drawn) [Compound 199, 6-{2-[(3-exo)-8-azabicyclo[3.2.1]oct-3-ylamino][1,3]thiazolo[4,5-c]pyridin-6-yl}-2-methylimidazo[1,2-a]pyridine-8-carbonitrile] | ≥ 7.00 |

| Compound | pIC50 |
| --- | --- |
| COc1cc(-c2cc(F)c3nc(N(C)C4CC(C)(C)NC(C)(C)C4)sc3c2)nn2cc(C)nc12 [Compound 200, 4-fluoro-6-(8-methoxy-2-methylimidazo[1,2-b]pyridazin-6-yl)-N-methyl-N-(2,2,6,6-tetramethylpiperidin-4-yl)-1,3-benzothiazol-2-amine] | ≥ 7.00 |
| Cc1cn2nc(-c3cc(F)c4nc(N(C)C5CC(C)(C)NC(C)(C)C5)sc4c3)cc(N)c2n1 [Compound 201, 6-{4-fluoro-2-[methyl(2,2,6,6-tetramethylpiperidin-4-yl)amino]-1,3-benzothiazol-6-yl}-2-methylimidazo[1,2-b]pyridazin-8-amine] | 6.30 to 7.00 |
| COc1cc(-c2cc(F)c3nc(N(C)C4CCNCC4)sc3c2)nn2cc(C)nc12 [Compound 202, 4-fluoro-6-(8-methoxy-2-methylimidazo[1,2-b]pyridazin-6-yl)-N-methyl-N-(piperidin-4-yl)-1,3-benzothiazol-2-amine] | ≥ 7.00 |
| Cc1cn2cc(-c3cc4sc(N(C)C5CC6CCC(C5)N6)nc4cn3)cc(C#N)c2n1 (stereo not drawn) [Compound 203, 6-{2-[(3-exo)-8-azabicyclo[3.2.1]oct-3-yl(methyl)amino][1,3]thiazolo[4,5-c]pyridin-6-yl}-2-methylimidazo[1,2-a]pyridine-8-carbonitrile] | ≥ 7.00 |
| Cc1cn2cc(-c3cc4sc(N(C)C5CC6CCC(C5)N6)nc4cn3)cc(F)c2n1 (stereo not drawn) [Compound 204, N-[(3-exo)-8-azabicyclo[3.2.1]oct-3-yl]-6-(8-fluoro-2-methylimidazo[1,2-a]pyridin-6-yl)-N-methyl[1,3]thiazolo[4,5-c]pyridin-2-amine] | ≥ 7.00 |
| CN(c1nc2cnc(-c3cc(F)c4nn(C)cc4c3)cc2s1)C1CC2CCC(C1)N2 (stereo not drawn) [Compound 205, N-[(3-exo)-8-azabicyclo[3.2.1]oct-3-yl]-6-(7-fluoro-2-methyl-2H-indazol-5-yl)-N-methyl[1,3]thiazolo[4,5-c]pyridin-2-amine] | ≥ 7.00 |
| CN(c1nc2cnc(-c3cc(C#N)c4nn(C)cc4c3)cc2s1)C1CC2CCC(C1)N2 (stereo not drawn) [Compound 206, 5-{2-[(3-exo)-8-azabicyclo[3.2.1]oct-3-yl(methyl)amino][1,3]thiazolo[4,5-c]pyridin-6-yl}-2-methyl-2H-indazole-7-carbonitrile] | ≥ 7.00 |
| Cc1cn2cc(-c3ncc4nc(N(C)C5CC6CCC(C5)N6)sc4n3)cc(C#N)c2n1 (stereo not drawn) [Compound 207, 6-{2-[(3-exo)-8-azabicyclo[3.2.1]oct-3-yl(methyl)amino][1,3]thiazolo[5,4-d]pyrimidin-5-yl}-2-methylimidazo[1,2-a]pyridine-8-carbonitrile] | ≥ 7.00 |
| CN(c1nc2cnc(-c3cc(C#N)c4nn(C)cc4c3)nc2s1)C1CC2CCC(C1)N2 (stereo not drawn) [Compound 208, 5-{2-[(3-exo)-8-azabicyclo[3.2.1]oct-3-yl(methyl)amino][1,3]thiazolo[5,4-d]pyrimidin-5-yl}-2-methyl-2H-indazole-7-carbonitrile] | ≥ 7.00 |
| Cc1cn2nc(-c3cc(F)c4nc(N(C)C5CC6CCC(C5)N6)sc4c3)ccc2n1 (stereo not drawn) [Compound 209, N-[(3-exo)-8-azabicyclo[3.2.1]oct-3-yl]-4-fluoro-N-methyl-6-(2-methylimidazo[1,2-b]pyridazin-6-yl)-1,3-benzothiazol-2-amine] | ≥ 7.00 |
| Cc1cn2nc(-c3cc(F)c4nc(C5(C)CCNCC5)sc4c3)cc(C)c2n1 [Compound 210, 6-[4-fluoro-2-(4-methylpiperidin-4-yl)-1,3-benzothiazol-6-yl]-2,8-dimethylimidazo[1,2-b]pyridazine] | 6.00 to 6.30 |
| Cn1cc2cc(-c3cc4sc(NC5CC6CCC(C5)N6)nc4cn3)cc(F)c2n1 (stereo not drawn) [Compound 211, N-[(3-exo)-8-azabicyclo[3.2.1]oct-3-yl]-6-(7-fluoro-2-methyl-2H-indazol-5-yl)[1,3]thiazolo[4,5-c]pyridin-2-amine] | ≥ 7.00 |
| Cc1cn2cc(-c3cc4sc(NC5CC6CCC(C5)N6)nc4cn3)cc(F)c2n1 (stereo not drawn) [Compound 212, N-[(3-exo)-8-azabicyclo[3.2.1]oct-3-yl]-6-(8-fluoro-2-methylimidazo[1,2-a]pyridin-6-yl)[1,3]thiazolo[4,5-c]pyridin-2-amine] | ≥ 7.00 |
| Cn1cc2cc(-c3cc4sc(NC5CC6CCC(C5)N6)nc4cn3)cc(C#N)c2n1 (stereo not drawn) [Compound 213, 5-{2-[(3-exo)-8-azabicyclo[3.2.1]oct-3-ylamino][1,3]thiazolo[4,5-c]pyridin-6-yl}-2-methyl-2H-indazole-7-carbonitrile] | ≥ 7.00 |
| CN(c1nc2cnc(-c3cc(C#N)c4nn(C)cc4c3)cc2s1)C1CCNCC1 [Compound 214, 2-methyl-5-{2-[methyl(piperidin-4-yl)amino][1,3]thiazolo[4,5-c]pyridin-6-yl}-2H-indazole-7-carbonitrile] | ≥ 7.00 |
| Cc1cn2cc(-c3cc4sc(N(C)C5CCNCC5)nc4cn3)cc(F)c2n1 [Compound 215, 6-(8-fluoro-2-methylimidazo[1,2-a]pyridin-6-yl)-N-methyl-N-(piperidin-4-yl)[1,3]thiazolo[4,5-c]pyridin-2-amine] | ≥ 7.00 |
| CN(c1nc2cnc(-c3cc(F)c4nn(C)cc4c3)cc2s1)C1CCNCC1 [Compound 216, 6-(7-fluoro-2-methyl-2H-indazol-5-yl)-N-methyl-N-(piperidin-4-yl)[1,3]thiazolo[4,5-c]pyridin-2-amine] | 6.30 to 7.00 |
